# What was measured:
# Assay in all cases: relative viability (nuclei count vs DMSO), 5 days (fraction); higher = more cells survive
# [1] = compound: CC1=CC=C(C=C1)C(=O)CN2C3=C(CCCC3)SC2=N [Pifithrin_alpha] + Cc1cc(Nc2cc(N3CCN(C)CC3)nc(Sc3ccc(NC(=O)C4CC4)cc3)n2)n[nH]1 [Tozasertib] (partner 0.1 µM)
# Method in brief: (§1)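 Nuclei were stained with Hoechst during a one-step fixation (final 0.05% Triton X-100, 1% formaldehyde, 1 ug/ml Hoechst) carried out 5 days after dosing, then counted on 4× images. The cells, lung cancer lines in 1536-well plates, had been dosed by pin tool the day after seeding with one drug alone or a fixed anchor-drug dose plus five library-drug doses (not always all listed) in √10 steps. Relative viability is the nuclei count in treated wells divided by that in vehicle wells, and each value is the median of duplicate plates.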
# Axitinib + OSI-027 = compound: CNC(=O)c1ccccc1Sc1ccc2c(/C=C/c3ccccn3)n[nH]c2c1 [Axitinib] + COc1cccc2cc(-c3nc([C@H]4CC[C@H](C(=O)O)CC4)n4ncnc(N)c34)[nH]c12 [OSI-027] (partner 0.5 µM)
# Method in brief: as §1
# Bemcentinib + Decitabine = compound: Nc1nc(Nc2ccc3c(c2)CC[C@@H](N2CCCC2)CC3)nn1-c1cc2c(nn1)-c1ccccc1CCC2 [Bemcentinib] + Nc1ncn([C@H]2C[C@H](O)[C@@H](CO)O2)c(=O)n1 [Decitabine] (partner 2 µM)
# Method in brief: as §1
# Bemcentinib + Linsitinib = compound: Nc1nc(Nc2ccc3c(c2)CC[C@@H](N2CCCC2)CC3)nn1-c1cc2c(nn1)-c1ccccc1CCC2 [Bemcentinib] + C[C@]1(O)C[C@@H](c2nc(-c3ccc4ccc(-c5ccccc5)nc4c3)c3c(N)nccn32)C1 [Linsitinib] (partner 1 µM)
# Method in brief: as §1
Cell Line,relative viability ([1]; first compound 1 µM),relative viability ([1]; first compound 3.162 µM),relative viability ([1]; first compound 10 µM),relative viability ([1]; first compound 31.62 µM),relative viability ([1]; first compound 100 µM),relative viability (Axitinib + OSI-027; first compound 0.005 µM),relative viability (Axitinib + OSI-027; first compound 0.01581 µM),relative viability (Axitinib + OSI-027; first compound 0.05 µM),relative viability (Axitinib + OSI-027; first compound 0.1581 µM),relative viability (Axitinib + OSI-027; first compound 0.5 µM),relative viability (Bemcentinib + Decitabine; first compound 0.04 µM),relative viability (Bemcentinib + Decitabine; first compound 0.1265 µM),relative viability (Bemcentinib + Decitabine; first compound 0.4 µM),relative viability (Bemcentinib + Decitabine; first compound 1.265 µM),relative viability (Bemcentinib + Decitabine; first compound 4 µM),relative viability (Bemcentinib + Linsitinib; first compound 0.04 µM),relative viability (Bemcentinib + Linsitinib; first compound 0.1265 µM),relative viability (Bemcentinib + Linsitinib; first compound 0.4 µM),relative viability (Bemcentinib + Linsitinib; first compound 1.265 µM),relative viability (Bemcentinib + Linsitinib; first compound 4 µM)
NCI-H522,0.585,0.55,0.592,0.522,0.593,0.765,0.665,0.572,0.857,0.647,0.759,0.789,0.657,0.558,0.619,–,–,–,–,–
NCI-H1563,–,–,–,–,–,0.708,0.705,0.742,0.705,0.704,–,–,–,–,–,1.24,1.15,1.21,1.15,1.19
NCI-H1703,–,–,–,–,–,–,–,–,–,–,–,–,–,–,–,0.675,0.776,0.798,0.638,0.746
Calu-6,–,–,–,–,–,–,–,–,–,–,–,–,–,–,–,0.946,1.05,1.04,0.983,0.944
NCI-H1792,–,–,–,–,–,0.785,0.652,0.563,0.679,0.919,0.582,0.741,0.594,0.454,0.63,0.539,0.441,0.676,0.645,0.556
CAL-12T,0.348,0.22,0.234,–,0.226,0.847,0.684,0.728,0.597,0.634,–,–,–,–,–,0.865,0.821,0.927,0.823,0.863
EBC-1,–,–,–,–,–,–,–,–,–,–,–,–,–,–,–,0.926,0.928,0.907,1.19,1.18
NCI-H2170,0.624,0.704,0.602,0.541,0.462,0.721,0.686,0.703,0.715,0.631,0.457,0.48,0.463,0.519,0.479,–,–,–,–,–
SW 900,0.53,0.358,0.372,0.27,0.364,0.646,0.536,0.562,0.564,0.699,0.406,0.479,0.432,0.428,0.398,–,–,–,–,–
NCI-H1299,–,–,–,–,–,–,–,–,–,–,–,–,–,–,–,1.01,1.04,0.985,1.07,1.09
NCI-H1650,–,0.346,0.22,0.261,0.31,0.706,0.513,0.721,0.64,1.01,0.428,0.416,0.389,0.517,0.417,–,–,–,–,–
NCI-H1623,0.42,0.528,0.432,0.358,0.349,0.455,0.398,0.424,0.436,0.454,–,–,–,–,–,–,–,–,–,–

# — the supplement of paper PMC10307832
